Test results as given in US10294202B2, “Pyrrolidinones as herbicides” (FMC Corporation, priority 2013, dated 2019).

Experiments:
Test in all cases: Test D pre-/postemergence herbicide test
[1] = test system: speedwell; format: in vivo, Veronica persica; settings: for Plant response rating: Postemergence, Speedwell, scale 0 to 100; for Plant response rating, Speedwell: Preemergence, scale 0 to 100 (0 no effect, 100 complete control)
Excerpt: (§1) Seeds of plant species selected from bluegrass (annual bluegrass, Poa annua), blackgrass (Alopecurus myosuroides), canarygrass (littleseed canarygrass, Phalaris minor), chickweed (common chickweed, Stellaria media), galium (catchweed bedstraw, Galium aparine), bromegrass, downy (downy bromegrass, Bromus tectorum), field poppy (Papaver rhoeas), field violet (Viola arvensis), foxtail, green (green foxtail, Setaria viridis), deadnettle (henbit deadnettle, Lamium amplexicaule), ryegrass, Italian (Italian ryegrass, Lolium multiflorum), kochia (Kochia scoparia), lambsquarters (Chenopodium album), oilseed rape (Brassica napus), pigweed (Amaranthus retroflexus), chamomile (scentless chamomile, Matricaria inodora), Russian thistle (Salsola kali), speedwell (bird's-eye speedwell, Veronica persica), barley, spring (spring barley, Hordeum vulgare), wheat, spring (spring wheat, Triticum aestivum), buckwheat, wild (wild buckwheat, Polygonum convolvulus), mustard, wild (wild mustard, Sinapis arvensis), oat, wild (wild oat, Avena fatua), radish, wild (wild radish, Raphanus raphanistrum), […]), barley, winter (winter barley, Hordeum vulgare), and wheat, winter (winter wheat, Triticum aestivum) were planted into a silt loam soil and treated preemergence with test chemicals formulated in a non-phytotoxic solvent mixture which included a surfactant. At the same time, these species were planted in pots containing Redi-Earth® planting medium (Scotts Company, 14111 Scottslawn Road, Marysville, Ohio 43041) comprising spaghnum peat moss, vermiculite, wetting agent and starter nutrients and treated with postemergence applications of the test chemicals formulated in the same manner. Plants ranged in height from 2 to 18 cm (1- to 4-leaf stage). Treated plants and controls were maintained in a controlled growth environment for 7 to 21 days after which time all species were compared to controls and visually evaluated. Plant response ratings, summarized in Table D, are based on a scale of 0 to 100 where 0 is no effect and 100 is complete control. A dash (-) response means no test result.

[2] = test system: ryegrass, Italian; format: in vivo, Lolium multiflorum; settings: for Plant response rating: Postemergence, Ryegrass, Italian, scale 0 to 100; for Plant response rating, Ryegrass, Italian: Preemergence, scale 0 to 100 (0 no effect, 100 complete control)
Excerpt: as §1

[3] = test system: blackgrass; format: in vivo, Alopecurus myosuroides; settings: for Plant response rating: Blackgrass, scale 0 to 100; for Plant response rating, Blackgrass: scale 0 to 100 (0 no effect, 100 complete control)
Excerpt: as §1

[4] = test system: field poppy; format: in vivo, Papaver rhoeas; settings: for Plant response rating: Field Poppy, scale 0 to 100; for Plant response rating, Field Poppy: scale 0 to 100 (0 no effect, 100 complete control)
Excerpt: as §1

[5] = test system: bluegrass; format: in vivo, Poa annua; settings: for Plant response rating: Bluegrass, scale 0 to 100; for Plant response rating, Bluegrass: scale 0 to 100 (0 no effect, 100 complete control)
Excerpt: as §1

O=C1NCC(c2ccc(F)c(F)c2)C1C(=O)Nc1ccccc1C(F)(F)F (racemic) [Compound 6]
Plant response rating ([1]; 16 g ai/ha): 0 | Plant response rating ([1]; 31 g ai/ha): 0 | Plant response rating ([1]; 62 g ai/ha): 0 | Plant response rating ([1]; 125 g ai/ha): 0 | Plant response rating ([1]; 250 g ai/ha): 15 | Plant response rating, Speedwell ([1]; 62 g ai/ha): 10 | Plant response rating, Speedwell ([1]; 125 g ai/ha): 30 | Plant response rating, Speedwell ([1]; 16 g ai/ha): 0 | Plant response rating, Speedwell ([1]; 31 g ai/ha): 10 | Plant response rating, Speedwell ([1]; 250 g ai/ha): 50 | Plant response rating ([2]; 16 g ai/ha): 0 | Plant response rating ([2]; 31 g ai/ha): 0 | Plant response rating ([2]; 62 g ai/ha): 0 | Plant response rating ([2]; 125 g ai/ha): 0 | Plant response rating ([2]; 250 g ai/ha): 0 | Plant response rating, Ryegrass, Italian ([2]; 62 g ai/ha): 0 | Plant response rating, Ryegrass, Italian ([2]; 125 g ai/ha): 0 | Plant response rating, Ryegrass, Italian ([2]; 16 g ai/ha): 0 | Plant response rating, Ryegrass, Italian ([2]; 31 g ai/ha): 0 | Plant response rating, Ryegrass, Italian ([2]; 250 g ai/ha): 0 | Plant response rating ([3]; Postemergence, 16 g ai/ha): 0 | Plant response rating ([3]; Postemergence, 31 g ai/ha): 0 | Plant response rating ([3]; Postemergence, 62 g ai/ha): 5 | Plant response rating ([3]; Postemergence, 125 g ai/ha): 5 | Plant response rating ([3]; Postemergence, 250 g ai/ha): 10 | Plant response rating, Blackgrass ([3]; Preemergence, 62 g ai/ha): 0 | Plant response rating, Blackgrass ([3]; Preemergence, 16 g ai/ha): 0 | Plant response rating, Blackgrass ([3]; Preemergence, 31 g ai/ha): 0 | Plant response rating ([3]; Preemergence, 125 g ai/ha): 0 | Plant response rating ([3]; Preemergence, 250 g ai/ha): 0 | Plant response rating ([4]; Postemergence, 16 g ai/ha): 0 | Plant response rating ([4]; Postemergence, 31 g ai/ha): 0 | Plant response rating ([4]; Postemergence, 62 g ai/ha): 20 | Plant response rating ([4]; Postemergence, 125 g ai/ha): 20 | Plant response rating ([4]; Postemergence, 250 g ai/ha): 30 | Plant response rating, Field Poppy ([4]; Preemergence, 62 g ai/ha): 0 | Plant response rating, Field Poppy ([4]; Preemergence, 31 g ai/ha): 0 | Plant response rating ([4]; Preemergence, 125 g ai/ha): 0 | Plant response rating ([4]; Preemergence, 250 g ai/ha): 100 | Plant response rating ([5]; Postemergence, 16 g ai/ha): 0 | Plant response rating ([5]; Postemergence, 31 g ai/ha): 0 | Plant response rating ([5]; Postemergence, 62 g ai/ha): 0 | Plant response rating ([5]; Postemergence, 125 g ai/ha): 0 | Plant response rating ([5]; Postemergence, 250 g ai/ha): 0 | Plant response rating, Bluegrass ([5]; Preemergence, 62 g ai/ha): 0 | Plant response rating, Bluegrass ([5]; Preemergence, 16 g ai/ha): 0 | Plant response rating, Bluegrass ([5]; Preemergence, 31 g ai/ha): 0 | Plant response rating ([5]; Preemergence, 125 g ai/ha): 0 | Plant response rating ([5]; Preemergence, 250 g ai/ha): 0

O=C1NCC(c2ccc(F)c(C(F)(F)F)c2)C1C(=O)Nc1cccc(F)c1F (racemic) [Compound 77]
Plant response rating, Speedwell ([1]; 62 g ai/ha): 25 | Plant response rating, Speedwell ([1]; 125 g ai/ha): 35 | Plant response rating, Speedwell ([1]; 31 g ai/ha): 20 | Plant response rating, Speedwell ([1]; 250 g ai/ha): 100 | Plant response rating, Ryegrass, Italian ([2]; 62 g ai/ha): 15 | Plant response rating, Ryegrass, Italian ([2]; 125 g ai/ha): 25 | Plant response rating, Ryegrass, Italian ([2]; 31 g ai/ha): 15 | Plant response rating, Ryegrass, Italian ([2]; 250 g ai/ha): 35 | Plant response rating, Blackgrass ([3]; Preemergence, 62 g ai/ha): 25 | Plant response rating, Blackgrass ([3]; Preemergence, 31 g ai/ha): 10 | Plant response rating ([3]; Preemergence, 125 g ai/ha): 40 | Plant response rating ([3]; Preemergence, 250 g ai/ha): 65 | Plant response rating, Field Poppy ([4]; Preemergence, 62 g ai/ha): 90 | Plant response rating, Field Poppy ([4]; Preemergence, 31 g ai/ha): 75 | Plant response rating ([4]; Preemergence, 125 g ai/ha): 95 | Plant response rating ([4]; Preemergence, 250 g ai/ha): 100 | Plant response rating, Bluegrass ([5]; Preemergence, 62 g ai/ha): 5 | Plant response rating, Bluegrass ([5]; Preemergence, 31 g ai/ha): 0 | Plant response rating ([5]; Preemergence, 125 g ai/ha): 45 | Plant response rating ([5]; Preemergence, 250 g ai/ha): 55

O=C1NCC(c2ccc(C(F)(F)F)cc2)C1C(=O)Nc1cccc(F)c1F (racemic) [Compound 202]
Plant response rating ([1]; 31 g ai/ha): 60 | Plant response rating ([1]; 62 g ai/ha): 75 | Plant response rating ([1]; 125 g ai/ha): 85 | Plant response rating ([1]; 250 g ai/ha): 90 | Plant response rating, Speedwell ([1]; 62 g ai/ha): 90 | Plant response rating, Speedwell ([1]; 125 g ai/ha): 90 | Plant response rating, Speedwell ([1]; 31 g ai/ha): 90 | Plant response rating, Speedwell ([1]; 250 g ai/ha): 100 | Plant response rating ([2]; 31 g ai/ha): 0 | Plant response rating ([2]; 62 g ai/ha): 0 | Plant response rating ([2]; 125 g ai/ha): 10 | Plant response rating ([2]; 250 g ai/ha): 15 | Plant response rating, Ryegrass, Italian ([2]; 62 g ai/ha): 5 | Plant response rating, Ryegrass, Italian ([2]; 125 g ai/ha): 5 | Plant response rating, Ryegrass, Italian ([2]; 31 g ai/ha): 0 | Plant response rating, Ryegrass, Italian ([2]; 250 g ai/ha): 10 | Plant response rating ([3]; Postemergence, 31 g ai/ha): 0 | Plant response rating ([3]; Postemergence, 62 g ai/ha): 5 | Plant response rating ([3]; Postemergence, 125 g ai/ha): 10 | Plant response rating ([3]; Postemergence, 250 g ai/ha): 40 | Plant response rating, Blackgrass ([3]; Preemergence, 62 g ai/ha): 35 | Plant response rating, Blackgrass ([3]; Preemergence, 31 g ai/ha): 30 | Plant response rating ([3]; Preemergence, 125 g ai/ha): 65 | Plant response rating ([3]; Preemergence, 250 g ai/ha): 75 | Plant response rating ([4]; Postemergence, 31 g ai/ha): 0 | Plant response rating ([4]; Postemergence, 62 g ai/ha): 75 | Plant response rating ([4]; Postemergence, 125 g ai/ha): 100 | Plant response rating ([4]; Postemergence, 250 g ai/ha): 100 | Plant response rating, Field Poppy ([4]; Preemergence, 62 g ai/ha): 85 | Plant response rating, Field Poppy ([4]; Preemergence, 31 g ai/ha): 85 | Plant response rating ([4]; Preemergence, 125 g ai/ha): 90 | Plant response rating ([4]; Preemergence, 250 g ai/ha): 100 | Plant response rating ([5]; Postemergence, 31 g ai/ha): 0 | Plant response rating ([5]; Postemergence, 62 g ai/ha): 10 | Plant response rating ([5]; Postemergence, 125 g ai/ha): 10 | Plant response rating ([5]; Postemergence, 250 g ai/ha): 15 | Plant response rating, Bluegrass ([5]; Preemergence, 62 g ai/ha): 25 | Plant response rating, Bluegrass ([5]; Preemergence, 31 g ai/ha): 10 | Plant response rating ([5]; Preemergence, 125 g ai/ha): 65 | Plant response rating ([5]; Preemergence, 250 g ai/ha): 70
